Test results taken from US20110059885A1, “TREATMENT OF DISEASES AND CONDITIONS MEDIATED BY EICOSANOIDS” (Natural Environment Research Council, priority 2008, published 2011).
One block for each molecule: values may come before it.

Columns and labels:
[1] = target: T1, Human BLT2 (Homo sapiens, UniProt Q9NPC1); settings: cited from earlier work
T1 sequence (Q9NPC1 1-358): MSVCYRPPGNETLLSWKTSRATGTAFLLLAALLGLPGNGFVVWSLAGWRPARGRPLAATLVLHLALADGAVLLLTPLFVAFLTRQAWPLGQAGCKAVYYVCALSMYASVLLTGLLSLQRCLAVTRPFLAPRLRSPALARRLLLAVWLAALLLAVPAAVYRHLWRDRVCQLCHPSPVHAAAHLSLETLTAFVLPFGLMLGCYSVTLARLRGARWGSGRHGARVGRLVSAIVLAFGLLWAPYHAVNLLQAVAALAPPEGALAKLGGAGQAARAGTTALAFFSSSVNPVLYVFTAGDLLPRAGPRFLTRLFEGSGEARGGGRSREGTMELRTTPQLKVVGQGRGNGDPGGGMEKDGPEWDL

[2] = system: immune complex induced lung injury; test: Immune complex induced lung disease (intranasal anti-Ova antibody); format: in vivo, mouse
Protocol: Recombinant OmCI was given at 0, 50, 100 and 250 μg intravenously together with 300 μg Ova containing 0.3% Evans blue (EB). […] MK886 is a leukotriene synthesis inhibitor. MK886 was administered with 300 μg Ova containing 0.3% Evans blue (EB) as a positive control.

[3] = system: LTB4 induced skin reaction; test: Local skin reaction induced by topical application of LTB4; format: in vivo, human
Protocol: Reactions appear after 12 hours and peak at 24-48 hours.
The solutions were then applied to the flexor surface of the forearm and air dried. […] The deposits were occluded under a chamber which was removed after 6 hours. Skin reactions were observed from 12-96 hours.
Solutions were incubated for 10 minutes at room temperature then applied to the flexor surface of the forearm and air dried. […] The deposits were occluded under a chamber which was removed after 6 hours. Skin reactions were observed from 12-96 hours.

[4] = LTB4 binding by UV absorbance after ultrafiltration
Protocol: The mixture was concentrated to 200 μl in Vivaspin (Sartorious) 5 kDa cut off ultrafiltration device. The retentate was washed with a further 30 mL of PBS and concentrated to 200 μl. In parallel, the same amount (4.5 mg) of bOmCI was incubated with 1.8 ml ultrapure ethanol in 39 mL PBS, then concentrated and washed as described above. The final volume of the concentrated proteins was 200 μl. UV absorption spectra of the proteins were examined using a Nanodrop ND-1000 Spectrophotometer.

[5] = LTB4 EIA using only LTB4-AP conjugate as ligand; format: binding; settings: for comparison of LTB4-AP binding by yOmCI and bOmCI: equivalent concentrations (FIG. 9)
Protocol: (§1) 100 μl of the standard solutions were mixed with ≦90 of PBS or diluted stock solutions of OmCI or RaHBP2. The mixtures were incubated at room temperature for 20 minutes then used in the immunoassays in accordance with the manufacturers instructions. The absorbance readings of the treated samples were compared with a standard curve to estimate the concentration of eicosanoids available in solution for binding by the anti-eicosanoid polyclonal antibodies.

[6] = Competitive enzyme immunoassay (EIA) for 12(S)-HETE binding; settings: for proportion of 12(S)-HETE bound: 634 molar excess OmCI to 12(S)-HETE, 12500 pg/mL 12(S)-HETE (FIG. 5)
Protocol: Competitive enzyme immunoassays (EIAs) from Assay Designs Inc. are available for the quantification of a number of the eicosanoids. One such EIA kit uses a polyclonal antibody to 12(S)-HETE to bind 12(S)-HETE labelled with alkaline phosphatase and competing unlabelled 12(S)-HETE in the sample or standards of known concentration. After simultaneous incubation at room temperature and capture of the antibody on the plate, the excess reagents are washed away, the substrate added and reaction measured by microplate reader. The higher the concentration of 12(S)-HETE in sample or standard the lower the absorbance reading, because the unlabelled fatty acid competes for binding with the alkaline phosphatase labelled molecule.
12(S)-HETE EIA Kit was from Assay Designs (Cat. No. 900-050). OmCI stocks used were expressed either in yeast (yOmCI) or bacteria (bOmCI). Both stocks were ≧98% pure, 8.3 mg/mL in phosphate buffered saline pH 7.2 (PBS). The negative control tick histamine binding protein RaHBP2, which is also a lipocalin (Paesen et al., 1999), was expressed in bacteria and was also ≧98% pure, 8.3 mg/mL in PBS. 12(S)-HETE standard was diluted to 50000, 12500, 3125, 781, 195 pg/mL in the assay buffer supplied with the kit. 100 μl of the 12500, 3125 and 0 pg/mL solutions were mixed with ≦9 μl of phosphate buffered saline pH 7.2 (PBS) or solutions of OmCI or RaHBP2 in PBS. The mixtures were incubated at room temperature for 20 minutes then used in the 12(S)-HETE immunoassay in accordance with the manufacturers instructions. The absorbance readings of the treated samples were compared with a standard curve to estimate the concentration of 12(S)-HETE available in solution for binding by the anti-12(S)-HETE polyclonal antibody.
Similar methods to those described in Example 1 were used.

[7] = Competitive EIA for thromboxane B2 binding
Protocol: as §1

[8] = Competitive EIA for cysteinyl leukotriene binding; settings: data not shown
Protocol: as §1

[9] = Competitive EIA for LTB4 with unlabelled LTB4; format: binding; settings: 750 pg/mL LTB4 added (FIG. 7)
Protocol: as §1

[10] = Example 5, bOmCI 33×, 16×, 7×, 2× or ovalbumin 15×, 3×, 1× molar excess, forearm (FIG. 12)
[11] = 50 μg intravenous (legend of FIG. 16)
[12] = 100 μg intravenously 15 min prior to intranasal OVA antibody
[13] = AP conjugate only, data not shown

Molecule: CCCCC/C=C\C[C@@H](O)/C=C/C=C/C=C\[C@@H](O)CCCC(=O)O [LTB4, leukotriene B4]
lower affinity of BLT2 than BLT1 for LTB4 [1]: 20 fold

Molecule: CC(C)c1ccc2c(c1)c(SC(C)(C)C)c(CC(C)(C)C(=O)O)n2Cc1ccc(Cl)cc1 [MK886, reference compound]
microvascular damage and inflammation ([2]; positive control (FIG. 16)): reduced dramatically

Molecule: OmCI preloaded with LTB4: bOmCI with LTB4 loaded into the binding pocket (example 6)
skin reaction induced by 100 ng LTB4 ([3]; Example 8, 4:1 molar ratio, preloaded protein): did not prevent the skin reaction
inhibitory effect on immune complex induced disease after saturation of the LTB4 binding site ([2]; OmCI preloaded with LTB4 (FIG. 16)): attenuated the inhibitory effect of OmCI although it did not abrogate the response

Molecule: OmCI: soft tick derived complement (C) inhibitor of Ornithodoros moubata, SEQ ID NO: 2 / 3; binds C5 and LTB4
skin reaction induced by 100 ng LTB4 [3, 10]: completely ablated
skin reaction induced by 100 ng LTB4 ([3]; Example 8, 4:1 to 1:1 molar ratio (FIG. 15)): ablated the skin reaction
lesion formation compared to LTB4 alone ([3]; Example 8, molar ratios 0.5:1 and less): no effect on lesion formation
LTB4 binding stoichiometry and affinity ([4]; conclusion from examples 6 and 7): binds to a single molecule of LTB4 with high affinity
dose dependence of effect ([2]; 0, 50, 100 and 250 μg intravenously, data not shown): dose dependent
neutrophil recruitment in the lung [2, 11]: reduces neutrophil recruitment in the lung
vascular permeability and protein exudation [2, 11]: decreases vascular permeability and protein exudation
neutrophil recruitment in the lung [2, 12]: reduced neutrophil recruitment in the lung
pulmonary microvascular damage and protein exudations in the bronchoalveolar space [2, 12]: reduced protein exudations

Molecule: Ovalbumin: negative control protein ovalbumin (Mr 45 kDa) [reference compound]
skin reaction induced by 100 ng LTB4 [3, 10]: no effect on lesion formation
lesion formation ([3]; Example 8, negative control protein): no inhibitory effect on lesion formation

competition of excess 12(S)-HETE with LTB4-AP binding ([5]; 8.24 μg bOmCI (FIG. 10)): does not outcompete
binding to LTB4-AP ([5]; dilution series, 50 μL LTB4-AP, no unlabelled LTB4 (FIG. 8)): dose dependent binding
comparison of LTB4-AP binding by yOmCI and bOmCI [5]: fairly similar
proportion of 12(S)-HETE bound [6]: 97%
direct binding of 12(S)-HETE-AP conjugate [6, 13]: not bound directly
binding of TXB2 ([7]; 3333 pg/mL TXB2 (FIG. 6)): does not appear to bind
direct binding of TXB2-AP conjugate [7, 13]: not bound directly
direct binding of cys-LK-AP conjugate ([8]; AP conjugate only): not bound directly
binding of Cys-LKs [8]: does not appear to bind
Molecule: bOmCI: bacterial expressed OmCI
amount of protein that binds approximately 50% of the LTB4-AP ([5]; FIG. 8): 0.33 µg
excess of protein needed to bind 50% of the LTB4-AP ([5]; calculated assuming 100% conjugation efficiency and IC50=1:1 binding): 1200 ×
amount of 12(S)-HETE available in solution for antibody binding ([6]; 20 min preincubation with 12500 pg/mL 12(S)-HETE, 41.2 μg protein (FIG. 2)): decreases the amount of 12(S)-HETE available in solution
effect of prolonged incubation on proportion of 12(S)-HETE bound ([6]; overnight at room temperature (FIG. 4)): does not increase the proportion of 12(S)-HETE bound
estimated concentration of LTB4 in solution [9]: 10000 pg/mL
LTB4 bound from solution ([4]; 1:1 molar ratio OmCI:LTB4, flow through of ultrafiltration (FIG. 13A)): all the LTB4 added to initial mixture was bound

comparison of LTB4-AP binding by yOmCI and bOmCI [5]: fairly similar
proportion of 12(S)-HETE bound [6]: roughly 50%
Molecule: yOmCI: yeast expressed OmCI
